In US9156809B2, “Carboxy ester ketals, methods of manufacture, and uses thereof” (SEGETIS, INC., priority 2012, dated 2015):

Tests used:
[1] = Relative VOC content / volatility by TGA emulating ASTM D2369; details: 110° C., nitrogen purge, 15 mg
Procedure: Here, 15 milligrams (mg) of each coalescent solvent was maintained at 110° C. for one hour with a nitrogen purge in a thermogravimetric analyzer (TGA).

[2] = Compatibility between waxes and alkyl ketal esters; assay type: physicochemical
Description: Compatibility between various waxes and the alkyl ketal esters are first determined as detailed below. Table 13 below details the fragrant formulations for different candles that contain the fragrant composition.

[3] = Hydrolytic stability of coalescent solvents at elevated temperature (45° C.); assay type: physicochemical; details: 1.0 g coalescent in 10 g Rhoplex SG-10M; for Initial pH: adjusted to pH 9 with ammonia, 45° C. study; for pH 1 week / pH 2 weeks: stored at 45° C.
Procedure: (§1) Latex formulations were prepared by adding 1.0 gram of each coalescent solvent to 10 grams of an acrylic latex (Rhoplex SG-10M available from Dow Chemical Company) and adjusting the pH of each sample to a pH of 9 using ammonia. A control latex formulation was prepared without adding a coalescent solvent.

[4] = Solubility of personal care or medicinal active agents in ketal; details: 50/50 mixture, room temperature
Description: Certified organic tea tree oil (Melaleuca alternifolia, plant sourced from Australia and extracted by steam distillation) can be purchased from Wyndmere Naturals.
The recommended usage rate is 0.1-1%.
The recommended usage rate is 0.01-0.05%.

[5] = Miscibility of alkyl ketal ester with essential oil; assay type: physicochemical; details: room temperature
Description: The alkyl ketal ester and the essential oil are blended in a weight ratio of 1:1 at room temperature using gentle agitation. Solubility is visually determined immediately after mixing. Clear solutions are described as “miscible” and solutions that are either cloudy or show evidence of a second phase are labeled as “immiscible.”

[6] = Hydrolytic stability of coalescent solvents at room temperature (pH of latex formulation); assay type: physicochemical; details: 1.0 g coalescent in 10 g Rhoplex SG-10M; for Initial pH: adjusted to pH 9 with ammonia, room temperature; for pH 1 week / pH 2 weeks / pH 3 weeks / pH 4 weeks: stored at room temperature
Description: The pH of latex formulations containing ester-functionalized coalescent solvents was monitored over time to evaluate hydrolytic stability of the coalescent solvents. Not wishing to be bound by theory, ester hydrolysis may occur at a high alkaline pH (for example a pH greater than about 9) during storage of latex compositions. The resulting hydrolysis products lower the pH of the latex composition and could decrease the coalescing efficiency of the coalescing solvent with respect to the initial amount of the coalescing solvent.
as §1

[7] = Model ethanolic sunscreen solutions, miscibility; assay type: physicochemical; details: by itself
Procedure: Three-component mixtures of ketal, ethanol, and avobenzone are prepared by mixing the materials at various proportions at room temperature in a vial and shaking. Avobenzone by itself is immiscible in ethanol at the 5% by weight level. The ketals used are as follows: A: ketal is 2EH-LPK; Example B: ketal is 1N-LPK. Example C: ketal is 355TMH-LPK.
Three-component mixtures of ketal, ethanol, and oxybenzone are prepared by mixing the materials at various proportions at room temperature in a vial and shaking. The ketals used are as follows: A: ketal is 2EH-LPK; Example B: ketal is 1N-LPK. Example C: ketal is 355TMH-LPK. Clear mixtures are considered to be “miscible” on this test, whereas cloudy or phase separated mixtures are considered to be “immiscible.” Oxybenzone by itself is immiscible in ethanol at the 10% by weight level.

[8] = Beeswax, 50/50 weight ratio, heated to 80° C., cooled to room temperature
[9] = Carnauba wax, 50/50 weight ratio, heated to 120° C.
[10] = Paraffin wax, 50/50 weight ratio, heated to 80° C., cooled to room temperature
[11] = Paraffin wax, 75/25 weight ratio, heated to 80° C., cooled to room temperature
[12] = Stearic acid, 50/50 weight ratio, heated to 80° C., cooled to room temperature
[13] = with Basil (Ocimum basilicum) essential oil
[14] = with Bergamot (Citrus bergamia) essential oil
[15] = with Birch sweet (Betula lenta) essential oil
[16] = with Citronella (Cymbopogon nardus) essential oil
[17] = with Coriander seed (Coriandrum sativum) essential oil
[18] = with Geranium (Pelargonium graveolens) essential oil
[19] = with Lavender (Lavandula angustifolium) essential oil
[20] = with Myrrh (Commiphora myrrha) essential oil
[21] = with Orange (Citrus sinensis) essential oil
[22] = with Patchouli (Pogostemon patchouli) essential oil
[23] = with Pine needle (pinus sylvestris) essential oil
[24] = with Vetiver (Vetivera zizanoides) essential oil
[25] = with Ylang ylang (Canaga odorata) essential oil

Molecule	Compatibility with wax upon cooling [2, 8]	Compatibility with wax upon cooling [2, 9]	Compatibility with wax upon cooling [2, 10]	Compatibility with wax upon cooling [2, 11]	Compatibility with wax upon cooling [2, 12]	Initial pH [3]	pH 1 week [3]	pH 2 weeks [3]	Miscibility with tea tree oil [4]	Miscibility of 50/50 blend by weight [5, 13]	Miscibility of 50/50 blend by weight [5, 14]	Miscibility of 50/50 blend by weight [5, 15]	Miscibility of 50/50 blend by weight [5, 16]	Miscibility of 50/50 blend by weight [5, 17]	Miscibility of 50/50 blend by weight [5, 18]	Miscibility of 50/50 blend by weight [5, 19]	Miscibility of 50/50 blend by weight [5, 20]	Miscibility of 50/50 blend by weight [5, 21]	Miscibility of 50/50 blend by weight [5, 22]	Miscibility of 50/50 blend by weight [5, 23]	further results
2,2,4-trimethyl-1,3-pentanediol monoisobutyrate [TPM]	–	–	–	–	–	–	–	–	–	–	–	–	–	–	–	–	–	–	–	–	% mass remaining ([1]; 0 min): 100%; % mass remaining ([1]; 5 min): 74%; % mass remaining ([1]; 10 min): 49%; % mass remaining ([1]; 15 min): 26%; % mass remaining ([1]; 20 min): 4%; % mass remaining ([1]; 30 min): 0%; % mass remaining ([1]; 60 min): 0%
CCCCCCCCCOC(=O)CCC1(C)OCC(C)O1 (stereo not drawn) [1N-LPK, 1-nonyl levulinate propylene glycol ketal]	single homogenous wax layer	single homogenous wax layer	single homogenous wax layer	single homogenous wax layer	single homogenous wax layer	8.92	8.75	8.63	miscible	Miscible	Miscible	Miscible	Miscible	Miscible	Miscible	Miscible	Miscible	Miscible	Miscible	Miscible	Miscibility of 50/50 blend by weight [5, 24]: Miscible; Miscibility of 50/50 blend by weight [5, 25]: Miscible
CCCCC(CC)COC(=O)CCC1(C)OCC(C)O1 (stereo not drawn) [2EH-LPK, 2-ethylhexyl levulinate propylene glycol ketal]	single homogenous wax layer	single homogenous wax layer	single homogenous wax layer	single homogenous wax layer	single homogenous wax layer	–	–	–	miscible	Miscible	Miscible	Miscible	Miscible	Miscible	Miscible	Miscible	Miscible	Miscible	Miscible	Miscible	Initial pH [6]: 8.97; pH 1 week [6]: 8.99; pH 2 weeks [6]: 8.94; pH 3 weeks [6]: 9.03; pH 4 weeks [6]: 9.00; Miscibility of 50/50 blend by weight [5, 24]: Miscible; Miscibility of 50/50 blend by weight [5, 25]: Miscible
CC(CCOC(=O)CCC1(C)OCC(C)O1)CC(C)(C)C (stereo not drawn) [355TMH-LPK, 3,5,5-trimethylhexyl levulinate propylene glycol ketal]	single homogenous wax layer	single homogenous wax layer	single homogenous wax layer	single homogenous wax layer	single homogenous wax layer	8.92	8.78	8.64	miscible	Miscible	Miscible	Miscible	Miscible	Miscible	Miscible	Miscible	Miscible	Miscible	Miscible	Miscible	Miscibility of 50/50 blend by weight [5, 24]: Miscible; Miscibility of 50/50 blend by weight [5, 25]: Miscible
COc1ccc(C(=O)CC(=O)c2ccc(C(C)(C)C)cc2)cc1 [Avobenzone, avobenzone]	–	–	–	–	–	–	–	–	–	–	–	–	–	–	–	–	–	–	–	–	Miscibility in ethanol ([7]; 5% by weight level in ethanol): immiscible
CCOC(=O)CCC1(C)OCC(C)O1 (stereo not drawn) [EtLPK, ethyl levulinate propylene glycol ketal]	–	–	–	–	–	8.95	8.06	7.53	–	–	–	–	–	–	–	–	–	–	–	–	Initial pH [6]: 9.00; pH 1 week [6]: 8.69; pH 2 weeks [6]: 8.53; pH 3 weeks [6]: 8.41; pH 4 weeks [6]: 8.24
COc1ccc(C(=O)c2ccccc2)c(O)c1 [Oxybenzone, oxybenzone]	–	–	–	–	–	–	–	–	–	–	–	–	–	–	–	–	–	–	–	–	Miscibility in ethanol ([7]; 10% by weight level in ethanol): immiscible
CC(C)OC(=O)CCC1(C)OCC(C)O1 (stereo not drawn) [iPrLPK, isopropyl levulinate propylene glycol ketal]	–	–	–	–	–	–	–	–	–	–	–	–	–	–	–	–	–	–	–	–	Initial pH [6]: 8.93; pH 1 week [6]: 8.79; pH 2 weeks [6]: 8.73; pH 3 weeks [6]: 8.71; pH 4 weeks [6]: 8.64
